# Patent US7652020B2, “Compounds for the treatment of inflammatory disorders” (Schering Corporation, priority 2004, dated 2010)
# Molecular target: T1, purified catalytic domain of recombinant human TACE (rhTACEc) (Homo sapiens, UniProt P78536, N452Q/S266A)
# T1 construct: Residue 215 to 477 with two mutation (S266A and N452Q) and a 6×His tail; 6xHis (C); made in house; host or cells: baculovirus/Hi5 insect cells
# Assay: TACE kinetic assay: cleavage of internally quenched peptide substrate SPDL-3, fluorescence
# Type: biochemical
# Conditions: TACE, representative compounds, numeric values; read-out: Ki
# T1 sequence (P78536 215-477 S266A/N452Q): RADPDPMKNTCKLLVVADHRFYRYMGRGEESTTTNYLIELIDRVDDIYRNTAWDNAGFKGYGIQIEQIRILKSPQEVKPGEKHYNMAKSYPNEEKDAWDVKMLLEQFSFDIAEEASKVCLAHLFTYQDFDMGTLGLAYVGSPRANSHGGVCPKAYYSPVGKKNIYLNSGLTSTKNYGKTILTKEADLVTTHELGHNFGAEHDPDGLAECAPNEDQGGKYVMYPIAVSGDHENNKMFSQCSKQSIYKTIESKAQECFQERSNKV
row,SMILES,Ki [nM]
1,C[C@@H](NC(=O)[C@H](O)[C@@H](O)C(=O)N1CCc2ccccc2[C@@H]1c1csc(N)n1)c1ccc(-n2cccn2)cc1 [drawing 1309],1.1
2,CNc1nc([C@H]2c3ccccc3CCN2C(=O)[C@H](O)[C@@H](O)C(=O)N[C@H](C)c2ccc(-n3cccn3)cc2)cs1 [drawing 1310],1.4
3,CNc1nc([C@H]2C[C@H]3C[C@H]3N2C(=O)[C@H](O)[C@@H](O)C(=O)N[C@H](C)c2ccc(-n3cccn3)cc2)cs1 [drawing 1312],1.4
4,CC#CCOc1cc([C@@H](C)NC(=O)[C@](C)(O)[C@@H](O)C(=O)N2Cc3cccnc3C2)ccc1-n1cccn1 [drawing 1313],1.44
5,CC#CCOc1cc([C@@H](C)NC(=O)[C@H](O)[C@@H](O)C(=O)N2CC=CC2c2cccc(Cl)c2)ccc1-n1cccn1 (some centres unmarked) [drawing 1314],1.54
6,CNc1nc([C@H]2CCCN2C(=O)[C@H](O)[C@@H](O)C(=O)N[C@H](C)c2ccc(-n3cccn3)cc2)c(C)s1 [drawing 1315],2
7,CNc1nc([C@H]2CCCN2C(=O)[C@H](O)[C@@H](O)C(=O)N[C@H](C)c2ccc(-n3cccn3)cc2)c(C#N)s1 [drawing 1316],2
8,C[C@@H](NC(=O)[C@H](O)[C@@H](O)C(=O)N1CCC[C@@H]1c1ccn(-c2ccc(F)cc2)n1)c1ccc(-n2cccn2)cc1 [drawing 1317],2
9,C[C@@H](NC(=O)[C@H](O)[C@@H](O)C(=O)N1CCC[C@@H]1c1ccn(-c2ccccc2)n1)c1ccc(-n2cccn2)cc1 [drawing 1318],2.3
10,C[C@@H](NC(=O)[C@H](O)[C@@H](O)C(=O)N1CCC[C@@H]1c1ccn(-c2ccc(F)cc2)n1)c1ccc(-n2cccn2)cc1 [drawing 1320],2.7
11,C[C@@H](NC(=O)[C@H](O)[C@@H](O)C(=O)N1CCc2ccc(F)cc2C1)c1ccc(-n2cccn2)cc1 [drawing 1323],3
12,CC(C)Nc1nc([C@@H]2c3ccc(Cl)cc3CCN2C(=O)[C@H](O)[C@@H](O)C(=O)N[C@H](C)c2ccc(-n3cccn3)cc2)cs1 [drawing 1324],3.3
13,CNc1nc([C@H]2CC(F)(F)CN2C(=O)[C@H](O)[C@@H](O)C(=O)N[C@H](C)c2ccc(-n3cccn3)cc2)cs1 [drawing 1327],3.9

# The next molecules have a lower Ki than those just listed; values first:
row,Ki [nM],SMILES
1,0.54,CC(C)Nc1nc([C@H]2c3ccccc3CN2C(=O)[C@H](O)[C@@H](O)C(=O)N[C@H](C)c2ccc(-n3cccn3)cc2)cs1 [drawing 1298]
2,0.57,CNc1nc([C@H]2C=CCN2C(=O)[C@H](O)[C@@H](O)C(=O)N[C@H](C)c2ccc(-n3cccn3)cc2)cs1 [drawing 1300]
3,0.75,C[C@@H](NC(=O)[C@](C)(O)[C@@H](O)C(=O)N1CCCC1(C)c1cccc(Cl)c1)c1ccc(-n2cccn2)cc1 (some centres unmarked) [drawing 1303]
4,0.8,C[C@@H](NC(=O)[C@H](O)[C@@H](O)C(=O)N1CCC[C@@H]1c1cccc(Cl)c1)c1ccc(-n2cccn2)cc1 [drawing 1304]
5,0.85,CC#CCOc1cc([C@@H](C)NC(=O)[C@H](O)[C@@H](O)C(=O)N2CCC[C@@H]2c2cccc(Cl)c2)ccc1-n1cccn1 [drawing 1305]
6,0.86,COc1cc2c(cc1OC)C(c1ccccc1)N(C(=O)[C@H](O)[C@@H](O)C(=O)N[C@H](C)c1ccc(-n3cccn3)cc1)CC2 (some centres unmarked) [drawing 1306]
7,0.89,CCNc1nc([C@@H]2c3ccccc3CN2C(=O)[C@H](O)[C@@H](O)C(=O)N[C@H](C)c2ccc(-n3cccn3)cc2)cs1 [drawing 1307]
